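Results reflect a 48-hour exposure of cells in 96-well plates to compound at five concentrations. GI50 marks 50% less growth.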 The source made the active and inactive calls. No stated cut-off is given here; in the data, active = GI50 up to about 1.1 µM and inactive = higher.
Key:
Test in all cases: inhibition of tumour cell growth, NCI panel, 48 h
UACC-257 = test system: UACC-257
Malme-3M = test system: Malme-3M
OVCAR-4 = test system: OVCAR-4
CCRF-CEM = test system: CCRF-CEM
HCC 2998 = test system: HCC 2998
SK-MEL-28 = test system: SK-MEL-28
SF-268 = test system: SF-268
MOLT-4 = test system: MOLT-4
RPMI-8226 = test system: RPMI-8226
NCI-H23 = test system: NCI-H23
EKVX = test system: EKVX
HOP-62 = test system: HOP-62
UO-31 = test system: UO-31
SK-OV-3 = test system: SK-OV-3
786-0 = test system: 786-0
SR = test system: SR

Measured: GI50

Nc1ncnc2c1ncn2C1CCC(CO)O1 (stereo not drawn)
inactive: UACC-257 > 100 µM | Malme-3M > 100 µM | OVCAR-4 > 82.8 µM | CCRF-CEM > 100 µM | HCC 2998 > 77.4 µM | SK-MEL-28 > 63.2 µM | SF-268 > 60.5 µM | MOLT-4 > 100 µM | RPMI-8226 > 100 µM | NCI-H23 > 66.7 µM | EKVX > 87.3 µM | HOP-62 > 100 µM | UO-31 > 100 µM | SK-OV-3 > 77.6 µM

O=C(/C=C/c1ccc([N+](=O)[O-])cc1)c1ccc(NCc2nc3ccccc3[nH]2)cc1
inactive: UACC-257 3.41 µM | Malme-3M 14.2 µM | OVCAR-4 13.3 µM | CCRF-CEM 1.57 µM | 786-0 3.13 µM | HCC 2998 2.61 µM | SK-MEL-28 13 µM | SR 3.34 µM | SF-268 5.71 µM | MOLT-4 3.51 µM | NCI-H23 3.75 µM | EKVX 7.69 µM | HOP-62 10 µM | UO-31 4.98 µM | SK-OV-3 13.6 µM

CCC(C)CN1C(=O)NC(Cc2ccccc2)C1=O (stereo not drawn)
inactive: UACC-257 22.1 µM | Malme-3M > 100 µM | HCC 2998 > 100 µM | SK-MEL-28 > 100 µM | SR > 100 µM | SF-268 > 100 µM | NCI-H23 > 100 µM | EKVX > 100 µM | HOP-62 > 100 µM | UO-31 > 100 µM

C=C=CC(NC(=O)c1ccccc1)(C(=O)O)C(F)(F)F (stereo not drawn)
inactive: UACC-257 > 100 µM | Malme-3M > 100 µM | OVCAR-4 > 10 µM | CCRF-CEM > 100 µM | HCC 2998 > 100 µM | SK-MEL-28 > 100 µM | SR > 100 µM | SF-268 > 100 µM | MOLT-4 > 100 µM | RPMI-8226 > 100 µM | NCI-H23 > 100 µM | EKVX > 100 µM

COC(=O)[C@H]1N[C@@H](C(=O)OC)C23CCC[C@H]2CC[C@]1(C(OC)OC)C3
inactive: UACC-257 > 100 µM | Malme-3M > 100 µM | OVCAR-4 > 100 µM | CCRF-CEM > 100 µM | 786-0 81.1 µM | HCC 2998 > 100 µM | SK-MEL-28 > 100 µM | SF-268 > 100 µM | MOLT-4 > 100 µM | RPMI-8226 > 100 µM | NCI-H23 > 100 µM | EKVX > 100 µM | HOP-62 > 100 µM | UO-31 > 100 µM | SK-OV-3 > 100 µM

O=c1c2cc3c(=O)n(CCc4ccccc4CO)c(=O)c3cc2c(=O)n1CCc1ccccc1CO
inactive: UACC-257 > 100 µM | Malme-3M > 100 µM | OVCAR-4 > 100 µM | CCRF-CEM > 100 µM | SK-MEL-28 > 100 µM | SF-268 > 100 µM | MOLT-4 > 100 µM | NCI-H23 > 100 µM | UO-31 > 100 µM | SK-OV-3 > 100 µM

C#CCC1(C(=O)OCC)C(=O)c2ccccc2N(C)C1=O (stereo not drawn)
inactive: Malme-3M > 100 µM | CCRF-CEM > 100 µM | SK-MEL-28 > 100 µM | SF-268 58.7 µM | MOLT-4 45.2 µM | RPMI-8226 68.4 µM | NCI-H23 14.7 µM | EKVX > 100 µM | UO-31 30.8 µM | SK-OV-3 > 100 µM

Nc1nc(N)c2nc(-c3ccco3)cnc2n1
inactive: UACC-257 92.7 µM | Malme-3M 46.5 µM | CCRF-CEM 43.1 µM | 786-0 27.1 µM | HCC 2998 > 100 µM | SK-MEL-28 92 µM | SR 39.9 µM | SF-268 > 100 µM | MOLT-4 44.5 µM | RPMI-8226 > 100 µM | NCI-H23 75 µM | EKVX 18.3 µM | HOP-62 35.6 µM | UO-31 38.5 µM | SK-OV-3 76.9 µM

C/C(CCn1[nH]c(=O)ccc1=O)=N\NC(=O)C(=O)NN
inactive: UACC-257 > 100 µM | Malme-3M > 100 µM | OVCAR-4 > 100 µM | CCRF-CEM > 100 µM | 786-0 > 100 µM | HCC 2998 > 100 µM | SK-MEL-28 > 100 µM | SF-268 > 100 µM | MOLT-4 > 100 µM | RPMI-8226 > 100 µM | NCI-H23 > 100 µM | EKVX > 100 µM | HOP-62 > 100 µM | UO-31 > 100 µM | SK-OV-3 > 100 µM

O=C(O)[C@@H](NS(=O)(=O)c1ccc(F)cc1)c1ccccc1
inactive: UACC-257 > 100 µM | Malme-3M > 100 µM | OVCAR-4 > 100 µM | CCRF-CEM > 100 µM | 786-0 > 100 µM | HCC 2998 > 100 µM | SK-MEL-28 > 100 µM | SF-268 > 100 µM | MOLT-4 > 100 µM | RPMI-8226 > 100 µM | NCI-H23 > 100 µM | EKVX > 100 µM | HOP-62 > 100 µM | UO-31 > 100 µM | SK-OV-3 > 100 µM

C=C(N=[N+]=[N-])c1cn(C2CC(O)C(CO)O2)c(=O)[nH]c1=O (stereo not drawn)
inactive: Malme-3M > 100 µM | CCRF-CEM > 100 µM | 786-0 > 100 µM | HCC 2998 > 100 µM | SK-MEL-28 > 100 µM | SR > 100 µM | MOLT-4 > 100 µM | RPMI-8226 > 100 µM | NCI-H23 > 100 µM | EKVX > 100 µM | HOP-62 > 100 µM | UO-31 > 100 µM | SK-OV-3 > 100 µM

Cc1cccc(C(=O)c2cccc3ccccc23)c1C(=O)O
inactive: UACC-257 > 100 µM | Malme-3M > 100 µM | OVCAR-4 > 100 µM | CCRF-CEM > 100 µM | 786-0 > 100 µM | SK-MEL-28 > 100 µM | SF-268 > 100 µM | MOLT-4 > 100 µM | RPMI-8226 > 100 µM | NCI-H23 > 100 µM | EKVX > 100 µM | HOP-62 > 100 µM | UO-31 > 100 µM | SK-OV-3 39.1 µM

CC12C(=CC(=O)CC1SCCS(=O)(=O)O)C(C#N)=C(N)N2c1ccc(Cl)c(Cl)c1 (stereo not drawn)
inactive: UACC-257 > 100 µM | OVCAR-4 > 100 µM | CCRF-CEM > 100 µM | 786-0 > 100 µM | HCC 2998 > 100 µM | SK-MEL-28 > 100 µM | SR > 100 µM | SF-268 > 100 µM | MOLT-4 > 100 µM | RPMI-8226 > 100 µM | NCI-H23 > 100 µM | EKVX > 100 µM | HOP-62 > 100 µM | UO-31 > 100 µM | SK-OV-3 > 100 µM

COc1cccc(/C=N/[N-]C(=S)Nc2ccccc2)c1[O-].O.[Zn+2]
inactive: UACC-257 55.5 µM | Malme-3M 86.5 µM | OVCAR-4 23.5 µM | CCRF-CEM 29.3 µM | 786-0 > 100 µM | HCC 2998 > 100 µM | SK-MEL-28 > 100 µM | SF-268 47 µM | MOLT-4 28.6 µM | RPMI-8226 66.8 µM | NCI-H23 37.7 µM | EKVX 49.1 µM | HOP-62 17 µM | UO-31 33.6 µM | SK-OV-3 44.4 µM

Source: ChEMBL document CHEMBL1201862, “PubChem BioAssay data set” (2004)
